Source: the supplement of paper PMC10307832

Experiments:
Test in all cases: relative viability (nuclei count vs DMSO), 5 days (fraction); higher = more cells survive
A-427 = tested on: A-427
Outline: (§1)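 Relative viability was taken as the ratio of nuclei in treated wells to nuclei in vehicle wells. Lung cancer cell lines in 1536-well plates received compounds by pin tool one day after seeding, either one drug alone or a fixed anchor-drug dose plus five library-drug doses (not always all listed) in √10 steps. Nuclei were counted on 4× images after 5 days of treatment, and values are medians of duplicate plates.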

ABC-1 = tested on: ABC-1
Outline: as §1

COR-L23 = tested on: COR-L23
Outline: as §1

EKVX = tested on: EKVX
Outline: as §1

LC-2-ad = tested on: LC-2-ad
Outline: as §1

LCLC-97TM1 = tested on: LCLC-97TM1
Outline: as §1

LK-2 = tested on: LK-2
Outline: as §1

LXF-289 = tested on: LXF-289
Outline: as §1

NCI-H1437 = tested on: NCI-H1437
Outline: as §1

NCI-H1666 = tested on: NCI-H1666
Outline: as §1

NCI-H1915 = tested on: NCI-H1915
Outline: as §1

NCI-H2085 = tested on: NCI-H2085
Outline: as §1

NCI-H2087 = tested on: NCI-H2087
Outline: as §1

NCI-H2126 = tested on: NCI-H2126
Outline: as §1

NCI-H3122 = tested on: NCI-H3122
Outline: as §1

NCI-H322M = tested on: NCI-H322M
Outline: as §1

NCI-H460 = tested on: NCI-H460
Outline: as §1

NCI-H647 = tested on: NCI-H647
Outline: as §1

NCI-H661 = tested on: NCI-H661
Outline: as §1

NCI-H727 = tested on: NCI-H727
Outline: as §1

PC-14 = tested on: PC-14
Outline: as §1

For `Nc1cccc2c1CN(C1CCC(=O)NC1=O)C2=O` (stereo not drawn) [Lenalidomide] + O=C(CCCCCCC(=O)Nc1ccccc1)NO [Vorinostat] (partner 1 µM), the relative viability (A-427; first compound 0.253 µM) was 0.871, the relative viability (A-427; first compound 0.8 µM) was 0.898 and the relative viability (A-427; first compound 2.53 µM) was 0.878. It also gave a relative viability (A-427; first compound 8 µM) of 0.873, a relative viability (ABC-1; first compound 0.253 µM) of 1.31 and a relative viability (ABC-1; first compound 0.8 µM) of 1.1. The relative viability (ABC-1; first compound 2.53 µM) was 1.36, the relative viability (ABC-1; first compound 8 µM) was 1.46 and the relative viability (COR-L23; first compound 0.253 µM) was 0.542. The relative viability (COR-L23; first compound 0.8 µM) was 0.408, the relative viability (COR-L23; first compound 2.53 µM) was 0.498 and the relative viability (COR-L23; first compound 8 µM) was 0.509. For the same molecule, the relative viability (EKVX; first compound 0.253 µM) was 0.765, the relative viability (EKVX; first compound 0.8 µM) was 0.668 and the relative viability (EKVX; first compound 2.53 µM) was 0.954. For the same molecule, the relative viability (EKVX; first compound 8 µM) was 0.636, the relative viability (LC-2-ad; first compound 0.253 µM) was 0.733 and the relative viability (LC-2-ad; first compound 0.8 µM) was 0.643. It also gave a relative viability (LC-2-ad; first compound 2.53 µM) of 0.718, a relative viability (LC-2-ad; first compound 8 µM) of 0.735 and a relative viability (LCLC-97TM1; first compound 0.253 µM) of 0.586. The relative viability (LCLC-97TM1; first compound 0.8 µM) was 0.581, the relative viability (LCLC-97TM1; first compound 2.53 µM) was 0.901 and the relative viability (LCLC-97TM1; first compound 8 µM) was 0.507. For the same molecule, the relative viability (LK-2; first compound 0.253 µM) was 0.339, the relative viability (LK-2; first compound 0.8 µM) was 0.252 and the relative viability (LK-2; first compound 2.53 µM) was 0.353. It also gave a relative viability (LK-2; first compound 8 µM) of 0.189, a relative viability (LXF-289; first compound 0.253 µM) of 0.812 and a relative viability (LXF-289; first compound 0.8 µM) of 0.625. It also gave a relative viability (LXF-289; first compound 2.53 µM) of 0.798, a relative viability (LXF-289; first compound 8 µM) of 0.838 and a relative viability (NCI-H1437; first compound 0.253 µM) of 0.825. It also gave a relative viability (NCI-H1437; first compound 0.8 µM) of 0.85, a relative viability (NCI-H1437; first compound 2.53 µM) of 0.934 and a relative viability (NCI-H1437; first compound 8 µM) of 0.843. For the same molecule, the relative viability (NCI-H1666; first compound 0.253 µM) was 1.05, the relative viability (NCI-H1666; first compound 0.8 µM) was 1.01 and the relative viability (NCI-H1666; first compound 2.53 µM) was 1.14. It also gave a relative viability (NCI-H1666; first compound 8 µM) of 1.04, a relative viability (NCI-H1915; first compound 0.253 µM) of 0.478 and a relative viability (NCI-H1915; first compound 0.8 µM) of 0.482. The relative viability (NCI-H1915; first compound 2.53 µM) was 0.601, the relative viability (NCI-H1915; first compound 8 µM) was 0.445 and the relative viability (NCI-H2085; first compound 0.253 µM) was 0.826. For the same molecule, the relative viability (NCI-H2085; first compound 0.8 µM) was 0.691, the relative viability (NCI-H2085; first compound 2.53 µM) was 0.799 and the relative viability (NCI-H2085; first compound 8 µM) was 0.624. For the same molecule, the relative viability (NCI-H2087; first compound 0.253 µM) was 0.809, the relative viability (NCI-H2087; first compound 2.53 µM) was 0.84 and the relative viability (NCI-H2087; first compound 8 µM) was 0.56. For the same molecule, the relative viability (NCI-H2126; first compound 0.253 µM) was 0.771, the relative viability (NCI-H2126; first compound 0.8 µM) was 0.747 and the relative viability (NCI-H2126; first compound 2.53 µM) was 0.832. It also gave a relative viability (NCI-H2126; first compound 8 µM) of 0.658, a relative viability (NCI-H3122; first compound 0.253 µM) of 0.723 and a relative viability (NCI-H3122; first compound 0.8 µM) of 1.05. The relative viability (NCI-H3122; first compound 2.53 µM) was 0.95, the relative viability (NCI-H3122; first compound 8 µM) was 0.966 and the relative viability (NCI-H322M; first compound 0.253 µM) was 0.934. For the same molecule, the relative viability (NCI-H322M; first compound 0.8 µM) was 0.907, the relative viability (NCI-H322M; first compound 2.53 µM) was 0.962 and the relative viability (NCI-H322M; first compound 8 µM) was 0.986. It also gave a relative viability (NCI-H460; first compound 0.253 µM) of 0.815, a relative viability (NCI-H460; first compound 0.8 µM) of 0.715 and a relative viability (NCI-H460; first compound 2.53 µM) of 1.03. For the same molecule, the relative viability (NCI-H460; first compound 8 µM) was 0.783, the relative viability (NCI-H647; first compound 0.253 µM) was 0.415 and the relative viability (NCI-H647; first compound 0.8 µM) was 0.68. The relative viability (NCI-H647; first compound 2.53 µM) was 0.525, the relative viability (NCI-H647; first compound 8 µM) was 0.653 and the relative viability (NCI-H661; first compound 0.253 µM) was 0.737. The relative viability (NCI-H661; first compound 0.8 µM) was 0.828, the relative viability (NCI-H661; first compound 2.53 µM) was 0.893 and the relative viability (NCI-H661; first compound 8 µM) was 0.848. The relative viability (NCI-H727; first compound 0.253 µM) was 1.26, the relative viability (NCI-H727; first compound 0.8 µM) was 1.04 and the relative viability (NCI-H727; first compound 2.53 µM) was 1.32. It also gave a relative viability (NCI-H727; first compound 8 µM) of 1.22, a relative viability (PC-14; first compound 0.253 µM) of 0.745 and a relative viability (PC-14; first compound 0.8 µM) of 0.713. It also gave a relative viability (PC-14; first compound 2.53 µM) of 0.826 and a relative viability (PC-14; first compound 8 µM) of 0.922.
